Experimental data published in ChEMBL document CHEMBL5149992, “Discovery, Optimization, and Evaluation of Quinazolinone Derivatives with Novel Linkers as Orally Efficacious Phosphoinositide-3-Kinase Delta Inhibitors for Treatment of Inflammatory Diseases” (J Med Chem, 2021).

Tests used:
[1] = biological target: T1, Phosphatidylinositol 4,5-bisphosphate 3-kinase catalytic subunit delta isoform (Homo sapiens, UniProt O00329); experiment: Inhibition of PI3Kdelta (unknown origin)
T1 sequence (O00329 whole entry): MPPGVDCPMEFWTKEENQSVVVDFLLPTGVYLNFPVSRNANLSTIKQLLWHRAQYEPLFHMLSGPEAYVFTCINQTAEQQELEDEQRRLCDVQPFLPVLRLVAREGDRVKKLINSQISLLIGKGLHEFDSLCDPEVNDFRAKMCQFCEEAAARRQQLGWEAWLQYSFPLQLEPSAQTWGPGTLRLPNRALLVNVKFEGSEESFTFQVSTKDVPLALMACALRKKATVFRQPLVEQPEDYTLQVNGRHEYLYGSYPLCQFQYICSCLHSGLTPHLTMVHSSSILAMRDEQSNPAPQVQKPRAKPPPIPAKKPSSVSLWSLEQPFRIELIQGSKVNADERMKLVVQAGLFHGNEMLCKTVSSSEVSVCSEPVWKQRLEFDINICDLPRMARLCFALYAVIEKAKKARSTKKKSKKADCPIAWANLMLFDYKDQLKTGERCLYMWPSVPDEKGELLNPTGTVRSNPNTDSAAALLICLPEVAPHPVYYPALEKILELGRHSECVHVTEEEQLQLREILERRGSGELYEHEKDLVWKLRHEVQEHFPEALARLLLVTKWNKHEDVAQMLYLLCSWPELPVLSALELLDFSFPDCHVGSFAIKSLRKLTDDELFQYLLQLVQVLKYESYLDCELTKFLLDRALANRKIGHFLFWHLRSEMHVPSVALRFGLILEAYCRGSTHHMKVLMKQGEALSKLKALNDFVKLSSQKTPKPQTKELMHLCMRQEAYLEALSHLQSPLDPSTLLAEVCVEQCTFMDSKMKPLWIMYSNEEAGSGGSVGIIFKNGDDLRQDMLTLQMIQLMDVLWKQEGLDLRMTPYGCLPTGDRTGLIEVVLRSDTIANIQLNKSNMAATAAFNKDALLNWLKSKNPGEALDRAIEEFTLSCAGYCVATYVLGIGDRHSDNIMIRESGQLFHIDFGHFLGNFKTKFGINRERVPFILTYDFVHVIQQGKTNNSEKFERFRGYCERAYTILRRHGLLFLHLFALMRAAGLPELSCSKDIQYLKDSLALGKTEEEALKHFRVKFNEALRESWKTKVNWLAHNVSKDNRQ

[2] = biological target: T2, Phosphatidylinositol 4,5-bisphosphate 3-kinase catalytic subunit gamma isoform (Homo sapiens, UniProt P48736); experiment: Inhibition of PI3Kgamma (unknown origin)
Target sequence in this assay (P48736 whole entry, canonical isoform): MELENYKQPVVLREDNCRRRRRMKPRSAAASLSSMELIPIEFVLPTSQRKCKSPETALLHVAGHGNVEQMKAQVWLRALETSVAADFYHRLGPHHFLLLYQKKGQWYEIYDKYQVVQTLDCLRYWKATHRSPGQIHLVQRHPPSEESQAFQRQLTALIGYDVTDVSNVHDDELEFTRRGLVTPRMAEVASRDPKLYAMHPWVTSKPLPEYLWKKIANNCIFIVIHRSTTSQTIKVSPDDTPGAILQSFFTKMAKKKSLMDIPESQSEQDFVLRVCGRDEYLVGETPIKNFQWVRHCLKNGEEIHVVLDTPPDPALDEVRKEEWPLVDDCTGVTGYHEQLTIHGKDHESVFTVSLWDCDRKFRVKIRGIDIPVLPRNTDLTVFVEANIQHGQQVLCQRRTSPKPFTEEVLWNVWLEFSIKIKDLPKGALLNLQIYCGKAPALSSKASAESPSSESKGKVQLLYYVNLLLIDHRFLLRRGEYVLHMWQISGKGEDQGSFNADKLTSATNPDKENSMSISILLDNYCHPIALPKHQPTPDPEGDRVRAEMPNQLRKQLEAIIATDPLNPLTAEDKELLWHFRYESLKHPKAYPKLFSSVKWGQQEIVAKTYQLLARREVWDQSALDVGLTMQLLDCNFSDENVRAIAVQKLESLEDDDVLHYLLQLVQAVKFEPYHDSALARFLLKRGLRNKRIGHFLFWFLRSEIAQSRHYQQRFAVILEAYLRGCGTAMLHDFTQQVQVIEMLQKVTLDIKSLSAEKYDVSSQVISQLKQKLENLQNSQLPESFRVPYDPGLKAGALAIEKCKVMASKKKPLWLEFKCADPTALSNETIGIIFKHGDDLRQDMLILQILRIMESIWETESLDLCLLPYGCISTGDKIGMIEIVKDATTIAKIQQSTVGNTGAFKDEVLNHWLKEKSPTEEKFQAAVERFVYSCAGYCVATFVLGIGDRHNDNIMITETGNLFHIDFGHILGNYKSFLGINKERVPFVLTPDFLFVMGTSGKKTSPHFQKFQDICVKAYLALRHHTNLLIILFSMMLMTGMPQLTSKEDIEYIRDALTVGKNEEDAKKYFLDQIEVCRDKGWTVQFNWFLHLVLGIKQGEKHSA

[3] = biological target: T3, Phosphatidylinositol 4,5-bisphosphate 3-kinase catalytic subunit alpha isoform (Homo sapiens, UniProt P42336); experiment: Inhibition of PI3Kalpha (unknown origin)
T3 sequence (P42336 whole entry, canonical isoform): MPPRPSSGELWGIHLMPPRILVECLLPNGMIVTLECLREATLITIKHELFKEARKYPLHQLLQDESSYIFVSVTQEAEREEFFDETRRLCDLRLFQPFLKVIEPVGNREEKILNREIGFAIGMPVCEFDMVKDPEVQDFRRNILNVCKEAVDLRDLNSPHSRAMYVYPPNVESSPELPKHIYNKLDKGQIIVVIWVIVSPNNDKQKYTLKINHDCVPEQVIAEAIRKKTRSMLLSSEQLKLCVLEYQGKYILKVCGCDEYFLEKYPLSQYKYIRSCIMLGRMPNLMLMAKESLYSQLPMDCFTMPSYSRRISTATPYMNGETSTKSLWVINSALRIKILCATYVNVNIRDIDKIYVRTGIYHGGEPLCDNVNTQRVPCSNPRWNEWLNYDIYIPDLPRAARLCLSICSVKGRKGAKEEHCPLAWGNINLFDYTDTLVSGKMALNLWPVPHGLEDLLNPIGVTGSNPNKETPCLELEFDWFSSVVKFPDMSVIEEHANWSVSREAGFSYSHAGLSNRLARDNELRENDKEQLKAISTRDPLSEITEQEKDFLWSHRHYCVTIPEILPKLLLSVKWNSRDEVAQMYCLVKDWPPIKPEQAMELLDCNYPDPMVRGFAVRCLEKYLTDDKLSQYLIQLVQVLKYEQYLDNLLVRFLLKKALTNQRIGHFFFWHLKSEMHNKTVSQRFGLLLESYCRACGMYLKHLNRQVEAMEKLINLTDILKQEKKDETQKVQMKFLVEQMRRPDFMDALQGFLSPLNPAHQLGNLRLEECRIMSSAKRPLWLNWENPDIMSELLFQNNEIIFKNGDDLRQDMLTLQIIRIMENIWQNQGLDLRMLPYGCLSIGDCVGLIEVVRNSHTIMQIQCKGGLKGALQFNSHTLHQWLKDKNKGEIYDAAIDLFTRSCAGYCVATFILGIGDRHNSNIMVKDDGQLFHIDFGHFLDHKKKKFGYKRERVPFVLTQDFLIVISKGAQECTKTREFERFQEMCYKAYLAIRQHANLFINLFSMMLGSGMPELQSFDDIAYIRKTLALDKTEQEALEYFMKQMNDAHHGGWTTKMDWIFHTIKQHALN

[4] = biological target: T4, Phosphatidylinositol 4,5-bisphosphate 3-kinase catalytic subunit beta isoform (Homo sapiens, UniProt P42338); experiment: Inhibition of PI3Kbeta (unknown origin)
Target sequence in this assay (P42338 whole entry, canonical isoform): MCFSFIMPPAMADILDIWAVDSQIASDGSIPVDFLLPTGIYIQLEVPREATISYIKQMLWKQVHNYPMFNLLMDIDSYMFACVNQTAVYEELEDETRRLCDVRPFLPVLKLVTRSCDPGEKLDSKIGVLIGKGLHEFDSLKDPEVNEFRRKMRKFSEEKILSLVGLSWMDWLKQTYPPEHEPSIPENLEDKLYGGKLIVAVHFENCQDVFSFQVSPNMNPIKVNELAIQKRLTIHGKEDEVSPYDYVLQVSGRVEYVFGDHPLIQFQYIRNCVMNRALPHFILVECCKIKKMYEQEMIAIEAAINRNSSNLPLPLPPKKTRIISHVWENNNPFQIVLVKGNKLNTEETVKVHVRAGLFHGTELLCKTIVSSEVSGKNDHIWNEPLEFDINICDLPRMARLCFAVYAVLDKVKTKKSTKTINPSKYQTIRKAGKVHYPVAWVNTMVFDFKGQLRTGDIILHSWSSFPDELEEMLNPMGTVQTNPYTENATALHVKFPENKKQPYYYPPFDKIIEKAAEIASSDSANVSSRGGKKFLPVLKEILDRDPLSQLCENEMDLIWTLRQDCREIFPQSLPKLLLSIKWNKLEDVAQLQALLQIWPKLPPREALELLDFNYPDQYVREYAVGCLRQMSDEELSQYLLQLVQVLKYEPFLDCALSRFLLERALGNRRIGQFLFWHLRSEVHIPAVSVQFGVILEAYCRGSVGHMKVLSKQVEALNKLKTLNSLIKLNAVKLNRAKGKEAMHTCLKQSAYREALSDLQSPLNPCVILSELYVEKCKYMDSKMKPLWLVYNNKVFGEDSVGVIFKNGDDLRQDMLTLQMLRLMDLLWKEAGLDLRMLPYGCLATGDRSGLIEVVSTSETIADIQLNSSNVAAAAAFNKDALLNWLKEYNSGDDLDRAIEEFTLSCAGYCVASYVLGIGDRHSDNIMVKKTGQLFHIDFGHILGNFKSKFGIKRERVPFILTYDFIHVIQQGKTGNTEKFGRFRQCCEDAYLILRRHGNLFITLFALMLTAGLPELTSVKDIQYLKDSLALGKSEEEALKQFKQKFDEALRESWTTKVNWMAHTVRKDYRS

[5] = human, microsomes, 10 µM
in vitro = conditions: human, liver microsomes
[6] = biological target: T3, Phosphatidylinositol 4,5-bisphosphate 3-kinase catalytic subunit alpha isoform; experiment: Inhibition of PI3Kalpha (unknown origin) at 0.1 uM relative to control
[7] = biological target: T4, Phosphatidylinositol 4,5-bisphosphate 3-kinase catalytic subunit beta isoform; experiment: Inhibition of PI3Kbeta (unknown origin) at 0.1 uM relative to control
Target sequence in this assay (P42338 whole entry, looked up, canonical isoform): as the sequence (P42338 whole entry, canonical isoform) above

[8] = biological target: T2, Phosphatidylinositol 4,5-bisphosphate 3-kinase catalytic subunit gamma isoform; experiment: Inhibition of PI3Kgamma (unknown origin) at 0.1 uM relative to control
Target sequence in this assay (P48736 whole entry, looked up, canonical isoform): as the sequence (P48736 whole entry, canonical isoform) above

[9] = biological target: T5, Phosphatidylinositol 4,5-bisphosphate 3-kinase catalytic subunit delta isoform (Homo sapiens) (UniProt O00329); experiment: Inhibition of PI3Kdelta (unknown origin) at 0.1 uM using phosphatidylinositol as substrate incubated for 30 mins in presence of ATP by HTRF based assay relative to control
T5 sequence (whole entry): T1 sequence (O00329 whole entry)

[10] = biological target: T5, Phosphatidylinositol 4,5-bisphosphate 3-kinase catalytic subunit delta isoform (Homo sapiens); experiment: Inhibition of PI3Kdelta (unknown origin) at 0.01 uM using phosphatidylinositol as substrate incubated for 30 mins in presence of ATP by HTRF based assay relative to control

IC50 [1] [nM] | CLH [5] [mL/min/g] | half-life at 60 h, 10 µM (in vitro) [h] | inhibition [9] [%] | inhibition [10] [%] | Compound | also measured
305 | 2.4 | 9.62 | – | – | N#Cc1c(N)ncnc1N1[C@H](c2nc3cccc(F)c3c(=O)n2-c2cc(F)cc(F)c2)C[C@@H]2CCCC[C@@H]21 | IC50 [2]: > 1000 nM; IC50 [3]: > 1000 nM; IC50 [4]: > 1000 nM
25 | 3.8 | 6.08 | – | – | C[C@H]1CC[C@@H](c2nc3cccc(Cl)c3c(=O)n2-c2ccccc2)N1c1nc(N)nc2[nH]cnc12 | inhibition [6]: 22%; inhibition [7]: 69%; IC50 [2]: 38 nM
34 | 10 | 2.31 | – | – | N#Cc1c(N)ncnc1N1[C@H](c2nc3cccc(Cl)c3c(=O)n2-c2cccc(F)c2)C[C@@H]2CCCC[C@@H]21 | inhibition [6]: 4%; inhibition [8]: 5%; inhibition [7]: 17%
– | – | – | 42 | 7 | C=CCO[C@@H]1C[C@@H](c2nc3cccc(Cl)c3c(=O)n2-c2ccccc2)N(c2nc(N)nc3[nH]cnc23)C1 | –
– | – | – | 1 | -1 | O=c1c2c(Cl)cccc2nc([C@@H]2C[C@@H]3CCCC[C@@H]3N2c2nc(Cl)nc3[nH]cnc23)n1-c1ccccc1 | –
50 | 5.4 | 4.28 | – | – | N#Cc1c(N)ncnc1N1[C@H](c2nc3cccc(Cl)c3c(=O)n2-c2cccnc2)C[C@@H]2CCCC[C@@H]21 | inhibition [6]: 17%; inhibition [8]: 3%; inhibition [7]: 17%
– | – | – | 50 | 11 | Nc1nc(N2CC(F)(F)C[C@H]2c2nc3cccc(Cl)c3c(=O)n2-c2ccccc2)c2nc[nH]c2n1 | –
14 | 11 | 2.1 | – | – | N#Cc1c(N)ncnc1N1[C@H](c2nc3cccc(Cl)c3c(=O)n2N2CCOCC2)C[C@@H]2CCCC[C@@H]21 | inhibition [6]: 24%; inhibition [8]: 5%; inhibition [7]: 43%
– | – | – | -2 | -2 | O=c1c2c(Cl)cccc2nc([C@@H]2C[C@@H]3CCCC[C@@H]3N2c2nccc(Cl)n2)n1-c1ccccc1 | –
– | – | – | -3 | -3 | O=c1c2c(Cl)cccc2nc([C@@H]2C[C@@H]3CCCC[C@@H]3N2c2ncnc3[nH]ncc23)n1-c1ccccc1 | –
3 | 10.4 | 2.22 | – | – | C[C@H]1CC[C@@H](c2nc3cccc(Cl)c3c(=O)n2-c2cccc(F)c2)N1c1ncnc(N)c1C#N | IC50 [2]: 199 nM; IC50 [3]: > 1000 nM; IC50 [4]: > 1000 nM
– | – | – | 7 | 2 | C=CCO[C@@H]1C[C@@H](c2nc3cccc(Cl)c3c(=O)n2-c2ccccc2)N(c2ncnc3[nH]ccc23)C1 | –
– | – | – | 8 | 0 | O=c1c2c(Cl)cccc2nc([C@@H]2C[C@@H]3CCCC[C@@H]3N2c2ncnc3[nH]cnc23)n1-c1ccccc1 | –
3 | 103.8 | 0.223 | 102 | 79 | C=C1C[C@@H](c2nc3cccc(Cl)c3c(=O)n2-c2ccccc2)N(c2ncnc(N)c2C#N)C1 | IC50 [2]: 250 nM; IC50 [3]: > 1000 nM; IC50 [4]: 819 nM
5 | 22.6 | 1.02 | – | – | C[C@H]1CC[C@@H](c2nc3cccc(Cl)c3c(=O)n2-c2ccccc2)N1c1ncnc(N)c1C#N | IC50 [2]: 144 nM; IC50 [3]: > 1000 nM; IC50 [4]: 968 nM
– | – | – | -3 | -1 | Nc1ccnc(N2[C@H](c3nc4cccc(Cl)c4c(=O)n3-c3ccccc3)C[C@@H]3CCCC[C@@H]32)n1 | –
30 | – | – | – | – | C[C@H]1CC[C@@H](c2nc3cccc(Cl)c3c(=O)n2-c2cccc(F)c2)N1c1ncnc2[nH]ccc12 | inhibition [6]: 19%; IC50 [2]: 74 nM
– | – | – | 6 | 2 | Nc1nc(N2[C@H](c3nc4cccc(Cl)c4c(=O)n3-c3ccccc3)C[C@@H]3CCCC[C@@H]32)c2nc[nH]c2n1 | –

IC50 [1] [nM] | CLH [5] [mL/min/g] | half-life at 60 h, 10 µM (in vitro) [h] | inhibition [9] [%] | inhibition [10] [%] | Compound | also measured
142 | < 12 | > 2 | – | – | N#Cc1c(N)ncnc1N1[C@H](c2nc3cccc(Cl)c3c(=O)n2-c2cc(F)cc(F)c2)C[C@@H]2CCCC[C@@H]21 | IC50 [2]: > 1000 nM; IC50 [3]: > 1000 nM; IC50 [4]: > 1000 nM
– | – | – | 75 | 28 | C=C1C[C@@H](c2nc3cccc(Cl)c3c(=O)n2-c2ccccc2)N(c2ncnc3[nH]cnc23)C1 | –
– | – | – | 34 | 4 | O=c1c2c(Cl)cccc2nc([C@@H]2CC(F)(F)CN2c2ncnc3[nH]cnc23)n1-c1ccccc1 | –
– | – | – | 0 | -1 | N#Cc1cccnc1N1[C@H](c2nc3cccc(Cl)c3c(=O)n2-c2ccccc2)C[C@@H]2CCCC[C@@H]21 | –
– | – | – | -1 | -1 | Cc1ccnc(N2[C@H](c3nc4cccc(Cl)c4c(=O)n3-c3ccccc3)C[C@@H]3CCCC[C@@H]32)n1 | –
– | – | – | 3 | 1 | O=c1c2c(Cl)cccc2nc([C@@H]2C[C@@H]3CCCC[C@@H]3N2c2ncnc3[nH]ccc23)n1-c1ccccc1 | –
– | 21.8 | 1.06 | – | – | Nc1nc(N2CCC[C@H]2c2nc3cccc(Cl)c3c(=O)n2-c2ccccc2)c2nc[nH]c2n1 | –
– | – | – | 44 | 8 | Nc1nc(N2CC3(CC3)C[C@H]2c2nc3cccc(Cl)c3c(=O)n2-c2ccccc2)c2nc[nH]c2n1 | –
4 | 13.4 | 1.72 | – | – | C[C@H]1CC[C@@H](c2nc3cccc(Cl)c3c(=O)n2-c2cccnc2)N1c1ncnc(N)c1C#N | inhibition [6]: 18%; inhibition [7]: 45%; IC50 [2]: 351 nM
– | – | – | 59 | 12 | C=C1C[C@@H](c2nc3cccc(Cl)c3c(=O)n2-c2ccccc2)N(c2ncnc3[nH]ccc23)C1 | –
10 | 12.6 | 1.83 | – | – | C[C@H]1CC[C@@H](c2nc3cccc(Cl)c3c(=O)n2N2CCOCC2)N1c1ncnc(N)c1C#N | inhibition [6]: 5%; inhibition [7]: 45%; IC50 [2]: 295 nM
9 | – | – | – | – | C[C@H]1CC[C@@H](c2nc3cccc(Cl)c3c(=O)n2-c2cccc(F)c2)N1c1nc(N)nc2[nH]cnc12 | inhibition [6]: 42%; inhibition [7]: 43%; IC50 [2]: 9 nM
– | – | – | 96 | 52 | C=C1C[C@@H](c2nc3cccc(Cl)c3c(=O)n2-c2ccccc2)N(c2nc(N)nc3[nH]cnc23)C1 | –
20 | 27.6 | 0.837 | 83 | 23 | N#Cc1c(N)ncnc1N1CC2(CC2)C[C@H]1c1nc2cccc(Cl)c2c(=O)n1-c1ccccc1 | IC50 [2]: 655 nM; IC50 [3]: > 1000 nM; IC50 [4]: > 1000 nM
67 | 767 | 0.03 | 47 | 17 | C=CCO[C@@H]1C[C@@H](c2nc3cccc(Cl)c3c(=O)n2-c2ccccc2)N(c2ncnc(N)c2C#N)C1 | –
– | – | – | 26 | 4 | O=c1c2c(Cl)cccc2nc([C@@H]2CC(F)(F)CN2c2ncnc3[nH]ccc23)n1-c1ccccc1 | –
– | – | – | 8 | 1 | C=CCO[C@@H]1C[C@@H](c2nc3cccc(Cl)c3c(=O)n2-c2ccccc2)N(c2ncnc3[nH]cnc23)C1 | –
– | – | – | 8 | 2 | O=c1c2c(Cl)cccc2nc([C@@H]2CC3(CC3)CN2c2ncnc3[nH]ccc23)n1-c1ccccc1 | –

Compound | IC50 [1] [nM] | CLH [5] [mL/min/g] | half-life at 60 h, 10 µM (in vitro) [h] | inhibition [9] [%] | inhibition [10] [%] | also measured
O=c1c2c(Cl)cccc2nc([C@@H]2CC3(CC3)CN2c2ncnc3[nH]cnc23)n1-c1ccccc1 | – | – | – | 32 | 3 | –
